This is an account of results in patent US20250195549A1, “NEW USE” (Kancera AB, priority 2023, published 2025).

Data set [1] concerns ST-elevation myocardial infarction (STEMI) patients undergoing percutaneous coronary intervention. Put plainly: FRACTAL clinical study: safety, tolerability and bleeding. The format is in vivo, human. From the text:
(§1) The FRACTAL (FRACTalkine inhibition in Acute myocardial infarction) study was designed as a phase Iia, randomised, two-arm parallel-group, placebo-controlled, double-blind, multi-centre trial. The trial was primarily intended to assess the safety tolerability of intravenous and oral administration of (2R)-2-[(2-amino-5-{[(1S)-1-phenylethyl]thio}[1,3]thiazolo[4,5-d]pyrimidin-7-yl)amino]-4-methylpentan-1-ol (KAND567) (hydrochloride salt) (′investigational medicinal product (IMP)′; structure below)
Following angiography and final confirmation of eligibility, patients were randomised to receive the intravenous (IV) bolus of either investigational medicinal product (IMP) or placebo. To avoid delivery of the IMP after reperfusion of the occluded vessel, percutaneous coronary intervention (PCI) was only commenced following the intravenous bolus of IMP/placebo. Patients then completed the remainder of their IMP infusion over 6 h. […]
(§2) The primary outcome of the study was safety, but a number of key secondary outcomes being assessed in parallel. Blood samples at nine different time points were used to assess any changes in the immune compartment as well as in inflammatory markers, and the cardioprotective effects of KAND567, as measured by gadolinium-contrast Cardiac Magnetic Resonance (CMR) (Cardiac MRI), were assessed as an additional secondary end point. […]

Data set [2] in a line: FRACTAL clinical study: steady state concentration during IV infusion. The format is in vivo, human. To be noted: IV infusion over 6 hours, total dose 134 mg; in the blood. The procedure:
The IMP and placebo (IMP 7.5 mg/mL solution (comprising 7.5 mg/mL IMP, Kleptose HP, sodium chloride and disodium phosphate in water for injection) added to 250 mL sodium chloride 0.9%, placebo solution as IMP solution but without active ingredient) were administered intravenously over a 6 hour period, at the rate summarised in the table below.
• Infusion of the initial bolus dose (approximately 10 mg of the active ingredient) was commenced at least 2 minutes before initiation of PCI. • Reperfusion of the occluded vessel was then initiated by advancing a coronary wire past the occluded or partially occluded site, followed by either balloon angioplasty, thrombectomy or stenting, according to routine clinical care. • IV infusion was then continued over 6 hours with an estimated steady state concentration of 1.5 µM (the rate of infusion was adjusted 3 hours after the start of the bolus dose, to achieve a steady concentration in the blood). The same IV solution was used throughout to give a total dose of 134 mg of the active ingredient over the 6-hour infusion time; placebo solution as IMP solution but without active ingredient). • If required, a bridging peroral dose of 0 to 4 capsules (50 mg capsules of IMP (white, size 1, hard capsules) or matching placebo) was administered depending on timing of presenting at the hospital. […]

Data set [3] concerns rat myocardial infarction model. To be noted: rat model without antiplatelet or anticoagulant co-treatment; cited from earlier work.
In data set [4] the test system is ST-elevation myocardial infarction (STEMI) patients undergoing percutaneous coronary intervention. Put plainly: FRACTAL phase IIa clinical study: left ventricular thrombus and intramyocardial haemorrhage by CMR and/or echocardiogram on day 3. Type of data set: in vivo, human. To be noted: treatment group vs placebo, day 3 of the treatment.
Source text: as §1
in ST-elevation myocardial infarction (STEMI) patients undergoing percutaneous coronary intervention. For this, a cohort of 71 STEMI patients were admitted into two large tertiary centres in the United Kingdom. Secondary endpoints included investigating the anti-inflammatory and cardioprotective effects of the treatment. […]
as §2

For data set [5] the test system is unchanged. Put plainly: FRACTAL clinical study: infarct size by late gadolinium-enhanced (LGE) MRI at day 90. The format is in vivo, human. To be noted: for Infarct size, GAD5-SD(%): LGE MRI at day 90, average, N in brackets. Here is the method: Every patient received a baseline CMR scan on day 3 post myocardial infarction, followed by a subsequent scan after 3 months. Image analysis was performed by a
Additionally, the size of the myocardial infarction was assessed using late gadolinium-enhanced (LGE) magnetic resonance imaging (MRI) at day 90 to compare infarct size in patients administered the placebo or the IMP, using a thresholding of 5 standard deviations above the mean signal intensity from normal myocardium.
The average infarct size for patients with and without intramyocardial haemorrhage in the placebo and treatment groups is shown in the table below.

On to `CC(C)C[C@H](CO)Nc1nc(S[C@@H](C)c2ccccc2)nc2nc(N)sc12` [KAND567, (2R)-2-[(2-amino-5-{[(1S)-1-phenylethyl]thio}[1,3]thiazolo[4,5-d]pyrimidin-7-yl)amino]-4-methylpentan-1-ol], for which the safety and tolerability result in data set [1] (intravenous and oral administration in STEMI patients) was “safe and well-tolerated”. For the same compound, in data set [1] (treatment group vs placebo), the incidence of bleeding result was “no increased incidence of bleeding”. Further, the “estimated steady state concentration” value in data set [2] is 1.5 UM. For the same compound, in data set [3], the infarct size result is on record as “reduce”, the inflammation result is on record as “reduce” and the intramyocardial haemorrhage result was “reduce”. Besides, in data set [4], the “intramyocardial haemorrhage (in words)” value is given as “significant reduction” and the “left ventricular thrombus (in words)” value is “significant reduction”. Also, the “infarct size compared to the placebo group (in words)” value in data set [5] (day 90, beyond the benefit of avoiding intramyocardial hemorrhage) is “further reduction”. For the same compound, the “Infarct size, GAD5-SD(%)” value in data set [5] (patients with intramyocardial hemorrhage, T-test vs placebo p = 0.81) is 30.8 (11) %. In addition, in data set [5] (patients without intramyocardial hemorrhage, T-test vs placebo p = 0.15), the “Infarct size, GAD5-SD(%)” value is 17.8 (16) %.
